Measurements published in patent US12303845B2, “Method for crystallization of active pharmaceutical ingredients” (Nanoform Finland Oyj, priority 2023, dated 2025).

Legend:
[1] = Crystallization of amorphous nanosized API in aqueous polymer solution, polymorph/crystallinity by XRD; format: physicochemical; parameters: key to Polymorph: bulk = same as the API before conversion to amorphous nanoparticles
Method: XRPD measurements were carried out using the Malvern PANalytical Empyrean X-ray diffractometer equipped with a Cu Kα (1.54 Å) source, MultiCore optics and a solid-state PIXcel3D detector. By using Kapton tape the samples were attached onto aluminum or polycrystalline silicon sample holders. Dried slurries were measured without further sample preparation under Kapton tape and suspensions were filtered, dried, and filters were attached with double sided tape. The samples were measured in the reflection geometry in a spinning measurement stage. The measurement range was 5-40 (°2θ). The step size and time per step values were varied depending on the counts per second obtained.
Determination of crystallization of API nanoparticles was evaluated via kinetic study of suspension. Accordingly, XRD measurement was done for suspension in different time points.
Amorphous API nanoparticles (budesonide, ezetimibe, ceritinib, and apalutamide) were added as dry powders to aqueous polymer solutions. The mixtures were either • (i) mixed with a magnetic stirrer and ultrasonicated until API was completely surrounded by water (wetted). The stirring was continued for 16-24 h at ambient temperature or • (ii) blended with a metal spatula and allowed to stay at room temperature for 18-24 h.
The suspensions formed were analyzed after 18-24 h. SEM and XRD samples were prepared as described above.

[2] = SEM of crystallized suspensions and dried products (crystal size grade, particle size); format: physicochemical; parameters: key: 5 = nanocrystals; 1 = large crystals
Method: SEM images were captured using the Zeiss Sigma 300 VP SEM instruments. Samples were dispersed into water and filtered with 0.1 μm filter. Filters were dried, transferred to SEM sample holders, and coated with a 5 nm thick layer of platinum. Amorphous API nanoparticles (budesonide, ezetimibe, ceritinib, and apalutamide) were added as dry powders to aqueous polymer solutions. The mixtures were either • (i) mixed with a magnetic stirrer and ultrasonicated until API was completely surrounded by water (wetted). The stirring was continued for 16-24 h at ambient temperature or • (ii) blended with a metal spatula and allowed to stay at room temperature for 18-24 h. The suspensions formed were analyzed after 18-24 h. SEM and XRD samples were prepared as described above. Suspension comprising nanosized APIs prepared as shown above were dried in a vacuum desiccator overnight. The solid materials were grounded to produce powders. The powders were analyzed on XRD and SEM. The powders comprising nanosized APIs were used in the stability, permeability, and dissolution tests as described above.

[3] = Stability tests of solid material (SEM, XRD, HPLC); format: physicochemical; conditions: materials prepared according to the disclosure; up to T30; crystallinity confirmed by XRD
Method: Solid material was weighted in separate vials (approx. 150 mg of material in each) and transferred to stability chambers. Three conditions were applied: ambient conditions (material in closed vial at RT), 25° C./65% RH and 40° C./75% RH. Material was analyzed at T0 as freshly prepared, T7 ([…]), T14 ([…]) and T30 (30 d) after the initiation of stability studies. SEM, XRD and dissolution/permeability studies were used to evaluate the crystallinity, particle size/morphology and performance of the material.

[4] = Permeability measurements (μFlux); format: in vitro ADME; conditions: composition of the disclosure vs bulk ezetimibe, PAMPA membrane
Method: A μFlux instrument connected to the Rainbow instrument (Pion Inc UK Ltd, Forest Row, UK) was used to determine the passive permeability of API from different formulations. The suspensions were loaded to the donor chamber containing 10 mL of SGF (0.025 M HCl pH 1.6) and incubated for 15 min. Thereafter, the content of the donor chamber was converted to FaSSIF medium pH 6.5 by addition of 10 mL of FaSSIF concentrate media and stirring rate of 150 rpm. The receiver compartment contained 20 mL of PION acceptor buffer pH 7.4 with stirring rate of 150 rpm. The permeability was assessed across a gastrointestinal PAMPA membrane (Pion Inc UK Ltd, Forest Row, UK). The suspensions were loaded either at either 40 μg/mL for Ezetimibe or 30 μg/mL for Apalutamide using suspensions prepared at concentration of 5 mg/mL in 1 wt.-% PVPVA suspension vehicle. The temperature was set to 37° C. throughout the measurement. Incubation time was about 24 h. UV-Vis spectra were recorded at 30 s intervals at a wavelength of 293-320 nm using the Pion Rainbow Dynamic with either 10 mm tips for Ezetimibe or 5 mm tips for Apalutamide. API concentrations were calculated using second derivative to avoid interference of undissolved floating particles based on a standard curve (stock solution 5 mg/mL in ethanol). […]

[5] = HPMC 1 wt.-%, SLS 0.2 wt.-%, mAPI 25 mg/g
[6] = HPMC 1 wt.-%, no SLS, mAPI 25 mg/g
[7] = HPMC 2.5 wt.-%, SLS 0.2 wt.-%, mAPI 25 mg/g
[8] = HPMC 2.5 wt.-%, no SLS, mAPI 25 mg/g
[9] = HPMC 5 wt.-%, SLS 0.2 wt.-%, mAPI 25 mg/g
[10] = HPMC 5 wt.-%, no SLS, mAPI 25 mg/g
[11] = PVP K30 1 wt.-%, no SLS, mAPI 25 mg/g
[12] = PVP K30 2.5 wt.-%, no SLS, mAPI 25 mg/g
[13] = PVP K30 5 wt.-%, no SLS, mAPI 25 mg/g
[14] = PVPVA 1 wt.-%, SLS 0.2 wt.-%, mAPI 25 mg/g
[15] = PVPVA 1 wt.-%, no SLS, mAPI 25 mg/g polymer solution
[16] = PVPVA 2.5 wt.-%, SLS 0.2 wt.-%, mAPI 25 mg/g
[17] = PVPVA 2.5 wt.-%, no SLS, mAPI 25 mg/g
[18] = PVPVA 5 wt.-%, SLS 0.2 wt.-%, mAPI 25 mg/g
[19] = PVPVA 5 wt.-%, no SLS, mAPI 25 mg/g
[20] = PVPVA 15 wt.-%, no SLS, mAPI 150 mg/g
[21] = PVPVA 15 wt.-%, no SLS, mAPI 300 mg/g
[22] = PVPVA 20 wt.-%, no SLS, mAPI 100 mg/g
[23] = PVPVA 20 wt.-%, no SLS, mAPI 200 mg/g
[24] = PVPVA 20 wt.-%, no SLS, mAPI 400 mg/g
[25] = PVPVA 25 wt.-%, no SLS, mAPI 125 mg/g
[26] = PVPVA 25 wt.-%, no SLS, mAPI 250 mg/g
[27] = Poloxamer 407 1 wt.-%, no SLS, mAPI 25 mg/g
[28] = Poloxamer 407 2.5 wt.-%, no SLS, mAPI 25 mg/g
[29] = Poloxamer 407 5 wt.-%, no SLS, mAPI 25 mg/g

O=C1[C@H](CC[C@H](O)c2ccc(F)cc2)[C@@H](c2ccc(O)cc2)N1c1ccc(F)cc1 [Eze, ezetimibe]
4: Grade (SEM, visual inspection) [2, 16]
3: Grade (SEM, visual inspection) [2, 11] | Grade (SEM, visual inspection) [2, 12] | Grade (SEM, visual inspection) [2, 13] | Grade (SEM, visual inspection) [2, 15]
bulk: Polymorph [1, 5] | Polymorph [1, 11] | Polymorph [1, 12] | Polymorph [1, 13] | Polymorph [1, 14] | Polymorph [1, 15] | Polymorph [1, 16] | Polymorph [1, 17] | Polymorph [1, 19] | Polymorph [1, 27] | Polymorph [1, 28] | Polymorph [1, 29]
> 9 h: time from contacting until crystal formation is observed in XRD diffractograms ([1]; suspension in 20 wt.-% aq. PVPVA, API:polymer ratio 1:1)
2: Grade (SEM, visual inspection) [2, 5] | Grade (SEM, visual inspection) [2, 6] | Grade (SEM, visual inspection) [2, 7] | Grade (SEM, visual inspection) [2, 8] | Grade (SEM, visual inspection) [2, 9] | Grade (SEM, visual inspection) [2, 10] | Grade (SEM, visual inspection) [2, 14] | Grade (SEM, visual inspection) [2, 17] | Grade (SEM, visual inspection) [2, 19]
1: Grade (SEM, visual inspection) [2, 27] | Grade (SEM, visual inspection) [2, 28] | Grade (SEM, visual inspection) [2, 29]
significantly better: permeability versus bulk API [4]
amorphous: Polymorph [1, 7] | Polymorph [1, 9]
5: Grade (SEM, visual inspection) [2, 18] | Grade (SEM, visual inspection) [2, 20] | Grade (SEM, visual inspection) [2, 21] | Grade (SEM, visual inspection) [2, 22] | Grade (SEM, visual inspection) [2, 23] | Grade (SEM, visual inspection) [2, 24] | Grade (SEM, visual inspection) [2, 25] | Grade (SEM, visual inspection) [2, 26]
hydrate: Polymorph [1, 6] | Polymorph [1, 8] | Polymorph [1, 10] | Polymorph [1, 18] | Polymorph [1, 20] | Polymorph [1, 21] | Polymorph [1, 22] | Polymorph [1, 23] | Polymorph [1, 24] | Polymorph [1, 25] | Polymorph [1, 26]
stable over the whole stability study: Stability of nanocrystalline material over the stability study [3]
